According to US20080161294A1, “Urea derivative, medicinal composition containing the same, and medicinal use of these” (priority 2005, published 2008):

What was measured:
[1] = tested on: anesthetized rats infused with hypotonic solution; test: Antidiuretic effect on diuresis induced by hypotonic solution in anesthetized rats; type: in vivo, rat; settings: 10 μg/kg intravenously; for Antidiuretic effect (decreasing rate of urine volume): anesthetized male SD rats, against pre value; for Duration tine: period until decreasing rate of urine volume restored to −20%
Description: The Study of Antidiuretic Effect
The Confirmation Study of Antidiuretic Effect on the Diuretic Activity Induced by Loading Hypotonic Solution in the Anesthetized Rats Infused with Hypotonic Solution
It has been reported that plasma AVP level was decreased with intravenous infusion of hypotonic solution (J. Endocrinol., Vol. 141, pp. 59-67, 1994). The antidiuretic effect of the test compounds in the rats induced a diuretic condition was determined by the method as reported by Angchanpen et al (Br. J. Pharmacol., Vol. 93, pp. 151-155, 1988). The test compounds were dissolved in dimethylsulfoxide at 10 mM, and used in the study. Male SD rats (200-400 g weight) were anesthetized with 100 mg/kg of Inactin (SIGMA) intraperitonealy and each cannula was inserted into trachea, jugular vein, bladder and femoral vein, respectively. The hypotonic solution (0.3% NaCl, 0.83% glucose) was infused via femoral vein at 9 mL/hour. The urine volume obtained via cannula inserted into bladder was measured every 10 minutes. After steady-state of urine volume for three 10 minutes periods, test compounds prepared as mentioned above were administered intravenously at 10 μg/kg via cannula inserted into jugular vein. Dimethylsulfoxide/saline (0.3%) was used as a vehicle. The average of urine volume measured for three 10 minutes periods before the administration was defined as the pre value (0%). After the administration of the test compounds, the urine volume was measured every 10 minutes. The antidiuretic effect, namely the decrease of the urine volume, induced by administration of test compounds was calculated from the decreasing rate of urine volume (minus %) against the pre value. Because maximum decreasing rate of the urine volume after administration of vehicle was −20% in this study, the period that decreasing rate of urine volume restored to −20% after administration of the test compounds was considered as indication of duration time of the test compounds.

human V2 receptor [2] = biological target: T1, human V2 receptor (Homo sapiens, UniProt P30518); test: Binding experiment for human V2 receptor ([3H]-AVP displacement, CHO cell membranes); set-up: purchased Packard BioScience; host or cells: CHO cell membranes; settings: inhibition of [3H]-AVP binding, CHO cell membranes expressing human V2 receptor; Ki calculated from IC50 and Kd; read-out: Affinity to human V2 receptor Ki
Description: Binding Experiment for Human V2 Receptor
Test compounds were dissolved in dimethylsulfoxide at 10 mM. The affinities for human V2 receptor were determined by an inhibition against [^3H]-Arginie vasopressin (AVP) (Perkin elmer Japan) binding to the human V2 receptor using CHO cell membranes expressed human V2 receptor (Packard BioScience). Cell membranes suspension was prepared by suspending the cell membranes as mentioned above with Assay buffer (50 mM Tris-HCl, 10 mM MgCl2, 0.1% bovine serum albumin (BSA), pH7.4) at an adequate protein concentration. The test compound solutions were prepared by diluting the dimethylsulfoxide solution of the test compound as mentioned above with Assay buffer at final concentration of 10 nM, 100 nM, 1 μM and 10 μM (in this diluting procedure, concentration of dimethylsulfoxide was adjusted to be 0.5% at each concentration of the test compound). Cell membranes suspension (50 μL), 3 nM of [^3H]-AVP (50 μL), Assay buffer (50 μL) and the solution of the test compounds at each concentrations (50 μL) were added to MultiScreen 96-well plate (Millipore) and the mixture was incubated for an hour at 25° C. with shaking slightly. After filtration by aspiration, the plate was washed with ice-cold washing buffer (50 mM Tris-HCl, 10 mM MgCl2, pH 7.4) for three times. After dry the plate, Microscinti-20 (Packard) was added to each well and the plate was shaken slightly, and then radioactivities of each well were counted with a micro plate scintillation counter, TopCount (Packard). Non-specific binding of [^3H]-AVP for cell membranes was determined by adding 1 μM of cold AVP substituted for the test compounds. The concentration of the test compounds inhibiting the specific binding of [^3H]-AVP by 50% was considered as IC50 value.
The Calculation of Kd Value of [^3H]-AVP for the Cell Membranes Expressed Human V2 Receptor
The suspension of the cell membranes expressed human V2 receptor was prepared with diluting adequately with the Assay buffer as mentioned above. In consideration for the radioactivity of [^3H]-AVP, six different concentrations (final concentration; ranging from approximately 100 pM to 6000 pM) of [^3H]-AVP were prepared by serial dilution by from 2 to 3 fold with the Assay buffer. The cell membranes suspension (50 μL), each concentrations of [^3H]-AVP (50 μL), the Assay buffer (50 μL) and 1 μM of cold AVP or the Assay buffer (50 μL) were added to MultiScreen 96-well plate (Millipore) and the mixture was incubated for an hour at 25° C. with shaking slightly. The specific bindings (B value) of each concentrations of the [^3H]-AVP were determined by the method as mentioned above and free-bound contents (F value) at each concentrations of the [^3H]-AVP were determined. The Kd value was calculated by Scatchard analysis using the B value and the F value.

human V2 receptor [3] = biological target: T1, human V2 receptor; test: Study to confirm the agonism of human V2 receptor (intracellular Ca2+, HEK293 cells coexpressing human V2 receptor and Gqs chimeric protein); type: cell-based; set-up: expressed in transfected cells; host or cells: HEK293 cells (American Type Culture Collection), transient transfection with pCI-neo/hV2 and pLEC-Gqs5; settings: for EC50: intracellular Ca2+ response, HEK293 cells coexpressing human V2 receptor and Gqs; for I A (intrinsic activity): maximum response relative to AVP = 1.00
Description: The Study to Confirm the Agonism of Human V2 Receptor
The experiment to confirm the response of the test compounds to human V2 receptor was carried out using the cells prepared as described below in order to use this confirmation study to see the agonism of human V2 receptor of the test compounds.
The test compounds were dissolved in dimethylsulfoxide at 10 mM and solutions of the test compounds were prepared by 10-fold serial dilution with the Assay buffer (0.1% BSA, 20 mM HEPES/Hank's balanced salt solution, pH 7.4) at the concentration of 0.1 nM to 10 μM, which were used in this study.
Human V2 receptor couples with Gs protein, one of the G-coupling protein, and consequently produces cyclic adenosine 3′, 5′-monophosphate (cAMP) via adenylate cyclase. This cAMP produce can be substituted to intracellular increase of Ca^2+ with coexpressing Gqs, a chimeric protein, and human V2 receptor (Mol. Pharmacol., Vol. 50, pp. 885-890, 1996). The responses of the test compounds for human V2 receptor were quantified by measuring this intracellular Ca^2+. The changes of intracellular Ca^2+ after adding the test compounds at each concentration as mentioned above (0.1 nM to 10 μM) were measured with a FlexStation (Molecular Devices) using a FLIPR CALCIUM ASSAY KIT (Molecular Devices).
The intrinsic activities (IA) of the test compounds were calculated from the maximum response of the test compounds as that of AVP was considered to be 1.00. In case of a full agonist, the EC50 values of the test compounds were calculated as the maximum response of AVP was considered to be 100% and in the case of a partial agonist, EC50 values of test compounds were calculated as the maximum response of own test compounds were considered to be 100%. The concentration that achieved to 50% response of the maximum response in a concentration-response curve was considered as EC50 value. The values of EC50 obtained in this study were shown in Table 84 described below as indications of the agonism of human V2 receptor.
The Preparation of the Cells Using Confirmation Study of an Agonism of Human V2 Receptor (HEK293 Cells Coexpressed Human V2 Teceptor and Gqs Chimeric Protein)
HEK293 cells (American Type Culture Collection) were incubated in the Eagle's Minimum Essential Medium (EMEM, Invitrogen) containing 1 mM sodium pyruvate, nonessential amino acids (0.1 mM), streptomycin (100 μg/mL), penicillin (100 U/mL), 10% fetal calf serum (Sanko chemicals) in an incubator with 5% CO2 at 37° C. The transfection was carried out by adding pCI-neo hV2 expression vector, expression vector inserted with the sequence coding Gqs chimeric protein (pLEC-Gqs5, LiveWare, Molecular Devices) and Lipofectamine2000 (Invitrogen), all diluted with OPTI-MEM I Reduced Serum Medium I (Invitrogen), to the cell suspension which was prepared from the confluent cells suspended with EMEM as mentioned above without antibiotics at 1×10^6 cells/mL. After the transfection, the cells (HEK293 cells coexpressed human V2 receptor and Gqs chimeric protein) were incubated in an incubator with 5% CO2 for two days and were used as cells for confirming agonism of human V2 receptor, and used for assessment of the test compounds. The expression plasmid vector of human V2 receptor represented as pCI-neo/hV2 above was constructed by the method as described below.

Male SD rats = test: Acute toxicity test; type: in vivo; settings: 10 mg/kg intravenously, N=2, one hour experimental period, urethane anesthesia
Description: Male SD rats (250-300 g weight) were divided into some groups (N=2) and each cannula was inserted into trachea and jugular vein under anesthesia with urethane (1.5 g/kg, subcutaneously). The test compound solutions were prepared with an adequate solvent to be a dosage of 10 mg/kg, and then the solution was administered intravenously via cannula. The survival rate was determined for an hour experimental period.

T1 sequence (P30518 whole entry): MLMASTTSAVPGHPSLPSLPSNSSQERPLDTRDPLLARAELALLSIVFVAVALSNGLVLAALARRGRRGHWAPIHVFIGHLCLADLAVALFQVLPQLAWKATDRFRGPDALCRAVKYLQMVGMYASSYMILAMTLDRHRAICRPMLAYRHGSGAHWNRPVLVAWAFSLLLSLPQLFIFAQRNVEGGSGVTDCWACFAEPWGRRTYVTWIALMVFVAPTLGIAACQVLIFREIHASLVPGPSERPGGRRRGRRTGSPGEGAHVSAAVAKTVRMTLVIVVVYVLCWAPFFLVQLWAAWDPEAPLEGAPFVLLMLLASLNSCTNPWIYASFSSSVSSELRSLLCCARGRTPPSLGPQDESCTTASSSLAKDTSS

| SMILES | Antidiuretic effect (decreasing rate of urine volume) [1] [%] | Duration tine [1] [min] | Ki (human V2 receptor [2]) [nM] | EC50 (human V2 receptor [3]) [nM] | I A (intrinsic activity) (human V2 receptor [3]) | Dead (Male SD rats) |
| --- | --- | --- | --- | --- | --- | --- |
| C[C@@H]1CN(C(=O)c2ccc(-n3cccn3)cc2Cl)c2ccccc2CN1C(=O)NCC(=O)O [Example 3-1, {[(R)-1-(2-Chloro-4-pyrazol-1-ylbenzoyl)-3-methyl-1,2,3,5-tetrahydrobenzo[e]-1,4-diazepin-4-carbonyl]amino}acetic acid] | −88.7 | 60 | 19.7 | 9.4 | 0.59 | – |
| C[C@@H]1CN(C(=O)c2ccc(OCCO)cc2Cl)c2ccccc2CN1C(=O)NCC(=O)O [Example 3-6] | – | – | – | 15.4 | 0.93 | – |
| C[C@@H]1CN(C(=O)c2ccc(-n3cccn3)cc2Cl)c2ccccc2CN1C(=O)NCCO [Example 4, N-(2-Hydroxyethyl)-(R)-1-(2-chloro-4-pyrazol-1-ylbenzoyl)-3-methyl-1,2,3,5-tetrahydrobenzo[e]-1,4-diazepin-4-carboxamide] | – | – | 61.9 | 16 | 0.75 | – |
| C[C@@H]1CN(C(=O)c2ccc(-n3cccn3)cc2Cl)c2ccccc2CN1C(=O)NCC(N)=O [Example 5-2] | −83.9 | 50 | 35.5 | 7.3 | 0.71 | 0/2 |
| CNC(=O)CNC(=O)N1Cc2ccccc2N(C(=O)c2ccc(-n3cccn3)cc2Cl)C[C@H]1C [Example 5-3] | – | – | 14 | 9.1 | 0.48 | – |
| C[C@@H]1CN(C(=O)c2ccc(-n3cccn3)cc2Cl)c2ccccc2CN1C(=O)NCC(=O)N(C)C [Example 5-4] | −90.4 | 80 | – | 27.6 | 0.49 | 0/2 |
| C[C@@H]1CN(C(=O)c2ccc(-n3cccn3)cc2Cl)c2ccccc2CN1C(=O)NCC(=O)N1CCCC1 [Example 5-5] | −89.4 | 90 | – | 24.9 | 0.83 | 0/2 |
| C[C@@H]1CN(C(=O)c2ccc(-n3cccn3)cc2Cl)c2ccccc2CN1C(=O)NCC(=O)N1CCCCC1 [Example 5-6] | – | – | – | 17.3 | 0.92 | – |
| C[C@@H]1CN(C(=O)c2ccc(-n3cccn3)cc2C(F)(F)F)c2ccccc2CN1C(=O)NCC(N)=O [Example 5-11] | – | – | – | 8.6 | 0.75 | – |
| Cc1cc(-n2cccn2)ccc1C(=O)N1C[C@@H](C)N(C(=O)NCC(N)=O)Cc2ccccc21 [Example 5-12] | – | – | – | 6.5 | 0.79 | – |
| C[C@@H]1CN(C(=O)c2ccc(-n3cccn3)cc2F)c2ccccc2CN1C(=O)NCC(N)=O [Example 5-15] | – | – | – | 9.1 | 0.71 | – |
| C[C@@H]1CN(C(=O)c2ccc(N3CCCC3)cc2Cl)c2ccccc2CN1C(=O)NCC(N)=O [Example 5-18] | – | – | 27.8 | 2.2 | 0.89 | – |
| C[C@@H]1CN(C(=O)c2ccc(-n3cccn3)cc2Cl)c2ccc(F)cc2CN1C(=O)NCC(N)=O [Example 5-19] | – | – | – | 15.6 | 0.57 | – |
